Test results from patent US20110129844A1, “Use of Activating Transcription Factor-2 (ATF2) for Detecting Skin Cancer” (priority 2007, published 2011).
Where two headings read alike, the source gives them in different places.

Tests used:
basal epidermal cells = assay: BrdU incorporation in basal keratinocytes after TPA treatment; assay type: in vivo, mice
Method: 5-bromo-2-deoxyuridine (BrdU) incorporation. 8-week-old K14.ATF2^f/f mice and WT mice were shaved 2 days before treatment with TPA (10 μg/200 μl acetone). BrdU (0.1 mg/g body weight) was injected intraperitoneally 1 h before the mice were sacrificed. The mice were euthanized 7, 24 and 48 h after six TPA treatments and their dorsal skins were removed, fixed in formalin and processed for paraffin embedding. Immunohistochemical staining was performed with a monoclonal anti-BrdU antibody (Sigma Aldrich, 1:100), which was applied to each section overnight at 4° C. after masking mouse IgG according to the protocol of the M.O.M. kit. […] BrdU positive and negative basal cells were counted in three to five randomly selected areas of each skin section (3-4 sections per mouse) and the mean percentage of BrdU-positive cells and standard deviation (s.d.) for each treatment group were determined.
Induced DNA synthesis in basal epidermal cells of TPA-treated K14.ATF2^f/f mice. In light of the enhanced hyperplastic responses seen in the epidermis of K14.ATF2^f/f mice, possible changes in the rate of keratinocyte proliferation, which could account for the increased hyperplasia, were assessed. BrdU labeling was carried out to quantify DNA synthesis in basal keratinocytes. […]

epidermis = conditions: three topical applications of TPA at 10 μg each; for thickness of hyperplastic epidermis (mean±SD): 18 hrs post treatment; for thickness of epidermal layers: after 48 hrs
Method: Measurement of Hyperplasia. Hyperplasia was assessed in six WT and K14.ATF2^f/f mice (8-week-old) after treatment with acetone or TPA at the indicated time points. The thickness of the epidermis (μm) was measured using an image system (SlideBook-Intelligent imaging) in 15 fields per section.
In order to determine the possible effect of ATF2 disruption on keratinocyte proliferation possible changes in epidermal hyperplasia was assessed.

Row | SMILES | mice having developed tumors (epidermal keratinocytes; mouse, in vivo) [%] | mice that had developed tumors (epidermal keratinocytes; mouse, in vivo) | papilloma development (epidermal keratinocytes; mouse, in vivo) | time at which papillomas started to appear after DMBA treatment (epidermal keratinocytes; mouse, in vivo) | papilloma development (epidermal keratinocytes; DMBA or TPA alone, WT or ATF2 mutant mice) | percentage of BrdU-labeled basal cells (basal epidermal cells; K14.ATF2f/f mice, 24 h after TPA treatment) [%] | percentage of BrdU-labeled basal cells (basal epidermal cells; wild-type mice, 24 hours after TPA treatment) [%] | thickness of hyperplastic epidermis (mean±SD) (epidermis; K14.ATF2f/f mice) [μm] | thickness of epidermal layers (epidermis; K14.ATF2f/f mice) [μm] | thickness of hyperplastic epidermis (mean±SD) (epidermis; WT mice) [μm] | thickness of epidermal layers (epidermis; wild-type mice) [μm]
1 | Cc1c2ccccc2c(C)c2c1ccc1ccccc12 [DMBA, 7,12-dimethylbenz[a]anthracene] | 50 | about 40% | did not result in papilloma development | around 17 weeks |  |  |  |  |  |  | 
2 | CCCCCCCCCCCCCC(=O)O[C@@H]1[C@@H](C)[C@@]2(O)[C@@H](C=C(CO)C[C@]3(O)C(=O)C(C)=C[C@@H]23)[C@H]2C(C)(C)[C@]12OC(C)=O [TPA] |  |  |  |  | did not result in papilloma development | 32±3.0 | 15±3 | 42±3.2 | 102±2.8 | 21±2.6 | 45±2.3
